In patent publication EP0782854A2, “Use of isopropyl-2-(1,3-dithietan-2-ylidene)-2-(N-(4-methylthiazol-2-yl)carbamoyl)acetate as a cancer chemopreventive agent” (Yuhan Corporation, priority 1995, dated 1997):

What was measured:
mouse skin tumor [1] = experiment: Mouse skin tumor test, carcinogenesis induced by B[a]P or VC (gavage pretreatment, TPA promotion); assay type: in vivo, female CD-1 mice; conditions: 16 weeks, diallyl sulfide 0.2mg/10µl/g body wt.
Protocol: (§1) Inhibitory effect of isopropyl 2-(1,3-dithietan-2-ylidene)-2-[N-(4-methylthiazol-2-yl)carbamoyl]acetate on mouse skin tumor was also investigated.
trioctanoin, or isopropyl 2-(1,3-dithietan-2-ylidene)-2-[N-(4-methylthiazol-2-yl)carbamoyl]acetate(0.15mg/10µl/g body wt.) or diallyl sulfide(0.2mg/10µl/g body wt.) suspended in trioctanoin were administered to female CD-1 mice(6 weeks old) by gastric gavage method 24 hours and 1 hour prior to the intraperitoneal injection of B[a]P(0.3µmol) or VC(11.5µmol) in 0.2ml acetone or the same volume of acetone alone.
One week after the initiation, animals were administered topically with 15nmol TPA(12-O-tetradecanoyl phorbol-13-acetate) in 0.1ml acetone twice a week to promote carcinogenesis.
Tumors of at least 1 mm in diameter were counted and recorded at 16 weeks after initiation.

[2] = test system: Salmonella typhimurium TA100; experiment: Ames His+ reversion assay, mutagenesis induced by B[a]P (liquid preincubation, S9); assay type: cell-based; conditions: 2.5µg B[a]P, control (0 µg) 248±26.0
Protocol: (§2) Male Sprague-Dawley rats (40 to 45 day old) were fed with a standard laboratory pellet diet and water ad libitum under standard conditions(12h light-12h dark cycle, temp.: 21±2°C). They were treated intraperitoneally with Aroclor 1254 (500mg/kg in corn oil) for 5 consecutive days prior to sacrifice. Rats were killed by CO2 asphyxiation, and their livers were immediately removed and perfused in situ with ice-cooled isotonic KCl solution. The liver tissue was weighed, minced, and homogenized in 3-fold volumes of ice-cooled 0.25M sucrose solution by employing a motorized Potter-Elvehjem glass-Teflon homogenizer. The homogenates were centrifuged at 9,000 X g for 30 minutes and the supernatant(S9 fraction) was used as the source of enzymes.
(§3) The Ames His+ reversion assay was performed in accordance with the liquid preincubation method using Salmonella typhimurium TA98 and TA100 as test strains[see D.M. Maton and B. N. Ames, Mutation Res., 113, pp. 173-221(1983)].
(§4) Each of TA98 and TA100(1 to 2 x 10^9/plate) and 2.5µg of B[a]P dissolved in DMSO were added to the Aroclor 1254-induced rat hepatic postmitochondrial supernatant containing NADPH-generating system obtained above([…] containing about 2mg protein). Various amounts of isopropyl 2-(1,3-dithietan-2-ylidene)-2-[N-(4-methylthiazol-2-yl)carbamoyl]acetate were added thereto, and preincubated at 37°C for 20 minutes.
(§5) The mixture was then diluted with soft agar, poured onto hard agar plates, and incubated for another 48 hours to allow the development of His+ revertant colonies. The data were corrected for the numbers of spontaneous revertant.

[3] = test system: Salmonella typhimurium TA98; experiment: as above; assay type: cell-based; conditions: 2.5µg B[a]P, control (0 µg) 116±3.6
Protocol: as §2, §3, §4, §5

[4] = test system: Salmonella typhimurium TA100 and TA1535; experiment: Ames His+ reversion assay, mutagenesis induced by VC (Figure 1); assay type: cell-based; conditions: vinyl carbamate 10µmol; compound 2.5µg and 25µg; values only in Figure 1
Protocol: as §2, §3
[…] Various amounts of isopropyl 2-(1,3-dithietan-2-ylidene)-2-[N-(4-methylthiazol-2-yl)carbamoyl]acetate were added thereto, and preincubated at 37°C for 20 minutes.
The mixture was then diluted with soft agar, poured onto hard agar plates, and incubated for another 48 hours to allow the development of His+ revertant colonies. The data were corrected for the numbers of spontaneous revertant. […]

[5] = test system: Salmonella typhimurium TA100; experiment: Ames His+ reversion assay, mutagenesis induced by VC epoxide; assay type: cell-based
Protocol: (§6) The Ames His+ reversion assay was performed in accordance with the liquid preincubation method using Salmonella typhimurium TA100 as a test strain[see D.M. Maton and B. N. Ames, Mutation Res., 113, pp. 173-221(1983)].
(§7) 25nmol of BPDE was incubated with S. typhimurium TA100 in the absence or presence of a given amount of isopropyl 2-(1,3-dithietan-2-ylidene)-2-[N-(4-methylthiazol-2-yl)carbamoyl]acetate at 37 °C for 20 minutes.
(§8) Then, the mixture was diluted with soft agar, poured onto hard agar plates, and incubated for another 48 hours to allow the development of His+ revertant colonies. The data are expressed as average of values from duplicate analysis.
The procedure of Test Example 1-2 was repeated except that Salmonella typhimurium TA100 was used as a test strain and vinyl carbamate epoxide(25 and 50nmol) was used as mutagens.

[6] = test system: Salmonella typhimurium TA100; experiment: Ames His+ reversion assay, mutagenesis induced by BPDE; assay type: cell-based; conditions: 25nmol BPDE; for No. of His+ revertant/plate: control (0 µg) 706
Protocol: as §6, §7, §8

calf thymus DNA = experiment: Covalent binding test of [3H]-B[a]P to DNA; assay type: biochemical; conditions: 37°C, 30 minutes, control (0 µM) 60±7.1
Protocol: 2ml of the mixture of 50mM potassium phosphate buffer (pH 7.4) containing 0.25µg of [^3H]-B[a]P(specific activity: 12.35mCi/mmol), 2mg of calf thymus DNA, 25mg of EDTA, NADPH(0.65mM), and 4 mg of hepatic postmitochondrial supernatant was incubated with isopropyl 2-(1,3-dithietan-2-ylidene)-2-[N-(4-methylthiazol-2yl)carbamoyl]acetate of various concentrations at 37°C for 30 minutes.
DNA was isolated by ethanol precipitation after the removal of proteins. DNA pellets thus obtained were successively rinsed with 75% ethanol containing 1% NaCl, 75% ethanol, absolute ethanol, acetone and ethyl ether, and then dried.
Dried DNA samples were dissolved in 15 mM NaCl-1.5mM sodium citrate buffer(pH 7.0). The DNA concentration was determined by diphenylamine method using calf thymus DNA as a standard[see K. Burton and G.B. Peterson, Biochem. J., 75, pp.17-27, 1960].
Aliqouts of DNA solutions were dissolved in Solvable(Du Pont/NEN Research Products, Boston, MA). After neutralization with glacial acetic acid, the levels of radio-labeled hydrocarbons covalently bound to DNA were determined by employing a liquid scintillation counter with the addition of Liquescent(National Diagnostics, Manville, NJ) as a cocktail.

mouse skin tumor [7] = experiment: Mouse skin tumor test, carcinogenesis induced by VC (topical initiation, TPA promotion); assay type: in vivo, female ICR mice; conditions: VC 5.8 µmol topical, pretreatment 2.5µmol compound or 8µmol diallyl sulfide
Protocol: as §1
The dorsal region of female ICR mice (6- to 7-week old) was shaved. Groups of 30 mice were administered with 2.5µmol isopropyl 2-(1,3-dithietan-2-ylidene)-2-[N-(4-methylthiazol-2-yl)carbamoyl]acetate in 0.2% sodium carboxymethyl cellulose or 8µmol of diallyl sulfide in 0.1M sterilized potassium phosphate buffer. After 10 minutes, the mice were administered topically with VC(5.8 µmol) in 0.2ml acetone containing 15% DMSO. Control group was administered with VC alone.
One week after the initiation, the mice were administered topically with 15nmol TPA(12-O-tetradecanoyl phorbol-13-acetate)in 0.1 ml acetone twice a week to promote carcinogenic process.
Tumors of at least 1 mm in diameter were counted and recorded every other week. The results are shown in Table V. Numbers in parentheses indicate the % of tumor bearing mice.

[8] = initiator B[a]P 0.3µmol, gavage pretreatment compound 0.15mg/10µl/g, trioctanoin control 6.7±5.1
[9] = initiator B[a]P 0.3µmol, gavage pretreatment compound 0.15mg/10µl/g, trioctanoin control 92
[10] = initiator VC 11.5µmol, gavage pretreatment compound 0.15mg/10µl/g, trioctanoin control 1.0±1.6
[11] = initiator VC 11.5µmol, gavage pretreatment compound 0.15mg/10µl/g, trioctanoin control 58
[12] = initiator acetone alone, gavage 24 hours and 1 hour before, compound 0.15mg/10µl/g

Cc1csc(NC(=O)C(C(=O)OC(C)C)=C2SCS2)n1 [Compound, Isopropyl 2-(1,3-dithietan-2-ylidene)-2-[N-(4-methylthiazol-2-yl)carbamoyl]acetate]
Ave. No. of tumor/mouse (mouse skin tumor [1]; [8]): 2.8±3.4
% mice with papillomas (mouse skin tumor [1]; [9]): 72%
Ave. No. of tumor/mouse (mouse skin tumor [1]; [10]): 0.5±0.8
% mice with papillomas (mouse skin tumor [1]; [11]): 36%
% mice with papillomas (mouse skin tumor [1]; [12]): 0%
Ave. No. of tumor/mouse (mouse skin tumor [1]; [12]): 0
No. of His+ revertant/plate ([2]; compound 1 µg): 205±23.1
No. of His+ revertant/plate ([2]; compound 5 µg): 140±4.6
No. of His+ revertant/plate ([2]; compound 25 µg): 93±8.7
No. of His+ revertant/plate ([3]; compound 1 µg): 84±16.1
No. of His+ revertant/plate ([3]; compound 5 µg): 48±3.2
No. of His+ revertant/plate ([3]; compound 25 µg): 23±2.5
effect on mutagenesis induced by VC [4]: dose-dependently inhibit
No. of His+ revertant/plate ([5]; VC epoxide 25 nmol, compound 2.5 µg, control (0 µg) 283): 247
No. of His+ revertant/plate ([5]; VC epoxide 25 nmol, compound 10 µg, control (0 µg) 283): 239
No. of His+ revertant/plate ([5]; VC epoxide 25 nmol, compound 25 µg, control (0 µg) 283): 201
No. of His+ revertant/plate ([5]; VC epoxide 50 nmol, compound 2.5 µg, control (0 µg) 598): 541
No. of His+ revertant/plate ([5]; VC epoxide 50 nmol, compound 10 µg, control (0 µg) 598): 509
No. of His+ revertant/plate ([5]; VC epoxide 50 nmol, compound 25 µg, control (0 µg) 598): 471
% inhibition ([6]; compound 2.5 µg): 58%
No. of His+ revertant/plate ([6]; compound 2.5 µg): 301
% inhibition ([6]; compound 10 µg): 69%
No. of His+ revertant/plate ([6]; compound 10 µg): 217
% inhibition ([6]; compound 25 µg): 74%
No. of His+ revertant/plate ([6]; compound 25 µg): 180
Covalent DNA binding (calf thymus DNA; compound 5 µM): 22 ± 2.0 pmol
Covalent DNA binding (calf thymus DNA; compound 50 µM): 16 ± 3.2 pmol
Average No. of papillomas/mouse (mouse skin tumor [7]; week 14, VC alone 0.9±1.1): 0.2±0.5
% of tumor bearing mice (mouse skin tumor [7]; week 14, VC alone 53): 20%
Average No. of papillomas/mouse (mouse skin tumor [7]; week 16, VC alone 1.4±1.7): 0.4±0.7
% of tumor bearing mice (mouse skin tumor [7]; week 16, VC alone 63): 30%
Average No. of papillomas/mouse (mouse skin tumor [7]; week 18, VC alone 1.8±1.9): 0.6±0.9
% of tumor bearing mice (mouse skin tumor [7]; week 18, VC alone 67): 40%
Average No. of papillomas/mouse (mouse skin tumor [7]; week 20, VC alone 2.4±2.1): 0.8±1.0
% of tumor bearing mice (mouse skin tumor [7]; week 20, VC alone 70): 50%

C=CCSCC=C [Diallyl sulfide, reference compound]
Ave. No. of tumor/mouse (mouse skin tumor [1]; [8]): 4.0±5.6
% mice with papillomas (mouse skin tumor [1]; [9]): 64%
Ave. No. of tumor/mouse (mouse skin tumor [1]; [10]): 0.4±0.9
% mice with papillomas (mouse skin tumor [1]; [11]): 28%
% mice with papillomas (mouse skin tumor [1]; [12]): 0%
Ave. No. of tumor/mouse (mouse skin tumor [1]; [12]): 0
Average No. of papillomas/mouse (mouse skin tumor [7]; week 14, VC alone 0.9±1.1): 0.2±0.5
% of tumor bearing mice (mouse skin tumor [7]; week 14, VC alone 53): 17%
Average No. of papillomas/mouse (mouse skin tumor [7]; week 16, VC alone 1.4±1.7): 0.5±0.9
% of tumor bearing mice (mouse skin tumor [7]; week 16, VC alone 63): 30%
Average No. of papillomas/mouse (mouse skin tumor [7]; week 18, VC alone 1.8±1.9): 0.7±1.1
% of tumor bearing mice (mouse skin tumor [7]; week 18, VC alone 67): 37%
Average No. of papillomas/mouse (mouse skin tumor [7]; week 20, VC alone 2.4±2.1): 0.9±1.1
% of tumor bearing mice (mouse skin tumor [7]; week 20, VC alone 70): 50%
